≈ marks a conversion by molar mass, not a printed value. Where “and” joins values, the source holds several entries; their conditions need not be identical. Equal values may be shown once. Entries after “also recorded” stand apart in the source; their conditions may differ. Read-outs that look alike come from different tables or passages of the source.
Legend:
CYP1A2 = CYP1A2 (Homo sapiens, UniProt P05177)
SARS-CoV pseudovirus [1] = test: microbe, parasite or virus in culture; format: cell-based; details: Severe acute respiratory syndrome coronavirus, A549-ACE2
[2] = test system: SARS-CoV-2 (US_WA-1/2020); format: cell-based
MERS-CoV pseudovirus [3] = test: microbe, parasite or virus in culture; format: cell-based; details: Middle East respiratory syndrome-related coronavirus, MRC5
CYP2C8 = CYP2C8 (Homo sapiens, UniProt P10632)
Chain of CYP2C8 (P10632 whole entry): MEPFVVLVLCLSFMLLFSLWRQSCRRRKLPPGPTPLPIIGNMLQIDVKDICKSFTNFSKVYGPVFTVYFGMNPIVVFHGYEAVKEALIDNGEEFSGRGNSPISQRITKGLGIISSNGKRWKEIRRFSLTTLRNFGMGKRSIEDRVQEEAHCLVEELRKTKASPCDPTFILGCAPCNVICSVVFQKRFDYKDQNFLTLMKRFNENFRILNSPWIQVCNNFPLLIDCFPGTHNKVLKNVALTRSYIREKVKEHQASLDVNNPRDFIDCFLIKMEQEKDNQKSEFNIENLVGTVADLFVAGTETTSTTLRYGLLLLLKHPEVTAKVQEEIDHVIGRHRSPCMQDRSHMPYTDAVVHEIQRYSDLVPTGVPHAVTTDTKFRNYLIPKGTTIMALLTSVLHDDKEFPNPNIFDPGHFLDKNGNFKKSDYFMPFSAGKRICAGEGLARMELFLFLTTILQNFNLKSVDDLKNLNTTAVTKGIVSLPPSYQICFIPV

SARS-CoV pseudovirus [4] = test: microbe, parasite or virus in culture; format: cell-based; details: Severe acute respiratory syndrome coronavirus, 293T/ACE2
CYP3A = CYP3A (Homo sapiens, UniProt P08684)
Chain of CYP3A (P08684 2-503): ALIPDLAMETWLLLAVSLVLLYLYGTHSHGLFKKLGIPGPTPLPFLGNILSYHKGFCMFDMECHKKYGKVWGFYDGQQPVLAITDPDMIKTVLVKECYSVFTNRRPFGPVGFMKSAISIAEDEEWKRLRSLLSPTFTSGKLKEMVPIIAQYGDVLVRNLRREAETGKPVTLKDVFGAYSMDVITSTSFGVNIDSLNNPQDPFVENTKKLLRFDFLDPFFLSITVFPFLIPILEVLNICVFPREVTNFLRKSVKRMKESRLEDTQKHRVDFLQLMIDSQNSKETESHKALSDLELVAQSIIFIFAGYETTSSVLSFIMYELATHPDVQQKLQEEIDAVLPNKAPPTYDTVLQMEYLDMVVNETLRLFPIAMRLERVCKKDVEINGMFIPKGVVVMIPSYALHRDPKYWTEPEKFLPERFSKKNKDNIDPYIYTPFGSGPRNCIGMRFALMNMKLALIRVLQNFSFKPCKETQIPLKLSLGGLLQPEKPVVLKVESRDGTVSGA

[5] = human, microsomes
in vitro = details: human
CYP2B6 = CYP2B6 (Homo sapiens, UniProt P20813)
Chain of CYP2B6 (P20813 whole entry): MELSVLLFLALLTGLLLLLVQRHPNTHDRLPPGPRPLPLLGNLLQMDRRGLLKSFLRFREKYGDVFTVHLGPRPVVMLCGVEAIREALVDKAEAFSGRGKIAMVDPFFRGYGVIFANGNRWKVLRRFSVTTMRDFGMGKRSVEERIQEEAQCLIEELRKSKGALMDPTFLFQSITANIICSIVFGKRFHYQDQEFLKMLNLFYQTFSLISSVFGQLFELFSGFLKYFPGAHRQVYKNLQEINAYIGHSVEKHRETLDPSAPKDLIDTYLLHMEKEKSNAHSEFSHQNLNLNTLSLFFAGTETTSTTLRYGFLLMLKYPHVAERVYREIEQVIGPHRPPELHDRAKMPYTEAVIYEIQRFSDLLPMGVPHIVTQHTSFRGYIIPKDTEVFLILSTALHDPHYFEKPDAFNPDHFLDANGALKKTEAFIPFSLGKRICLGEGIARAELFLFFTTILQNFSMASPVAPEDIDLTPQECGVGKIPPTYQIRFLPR

in vivo = details: female, Sprague Dawley, rat
CYP2D6 [6] = target: T1, CYP2D6 (Homo sapiens, UniProt P10635); test: biochemical
T1 sequence (P10635 whole entry): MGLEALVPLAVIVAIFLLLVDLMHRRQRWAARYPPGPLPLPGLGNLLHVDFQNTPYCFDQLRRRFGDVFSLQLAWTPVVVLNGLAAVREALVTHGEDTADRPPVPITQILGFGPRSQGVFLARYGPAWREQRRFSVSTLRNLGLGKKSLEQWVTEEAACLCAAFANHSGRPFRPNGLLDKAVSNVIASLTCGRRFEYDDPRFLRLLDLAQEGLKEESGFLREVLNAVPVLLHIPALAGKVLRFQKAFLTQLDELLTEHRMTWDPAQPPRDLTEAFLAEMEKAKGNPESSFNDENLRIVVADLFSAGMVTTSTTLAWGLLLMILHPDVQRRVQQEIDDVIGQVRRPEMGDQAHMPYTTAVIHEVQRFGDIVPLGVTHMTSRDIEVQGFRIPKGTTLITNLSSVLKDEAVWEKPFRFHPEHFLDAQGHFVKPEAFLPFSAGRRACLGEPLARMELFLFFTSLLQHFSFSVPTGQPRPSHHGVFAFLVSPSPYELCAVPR

CYP2C9 = CYP2C9 (Homo sapiens, UniProt P11712)
Chain of CYP2C9 (P11712 whole entry): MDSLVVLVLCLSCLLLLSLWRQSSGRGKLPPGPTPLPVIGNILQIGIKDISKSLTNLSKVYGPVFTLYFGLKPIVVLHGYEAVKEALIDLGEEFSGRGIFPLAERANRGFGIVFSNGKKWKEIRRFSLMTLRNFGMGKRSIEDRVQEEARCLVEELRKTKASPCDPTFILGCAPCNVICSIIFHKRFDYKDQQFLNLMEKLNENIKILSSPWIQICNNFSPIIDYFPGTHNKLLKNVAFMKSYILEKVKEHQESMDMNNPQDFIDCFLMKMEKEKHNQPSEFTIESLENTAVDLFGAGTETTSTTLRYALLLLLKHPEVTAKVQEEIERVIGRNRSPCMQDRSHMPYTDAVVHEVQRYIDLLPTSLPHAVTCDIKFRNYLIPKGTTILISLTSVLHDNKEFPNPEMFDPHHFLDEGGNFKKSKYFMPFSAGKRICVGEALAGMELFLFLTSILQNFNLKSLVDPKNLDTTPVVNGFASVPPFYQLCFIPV

[7] = target: SARS-CoV-2 spike (active trimer) His-tag (Severe acute respiratory syndrome coronavirus 2, UniProt P0DTC2); format: binding
CYP2C19 = CYP2C19 (Homo sapiens, UniProt P33261)
Chain of CYP2C19 (P33261 whole entry, the tested form may be a part): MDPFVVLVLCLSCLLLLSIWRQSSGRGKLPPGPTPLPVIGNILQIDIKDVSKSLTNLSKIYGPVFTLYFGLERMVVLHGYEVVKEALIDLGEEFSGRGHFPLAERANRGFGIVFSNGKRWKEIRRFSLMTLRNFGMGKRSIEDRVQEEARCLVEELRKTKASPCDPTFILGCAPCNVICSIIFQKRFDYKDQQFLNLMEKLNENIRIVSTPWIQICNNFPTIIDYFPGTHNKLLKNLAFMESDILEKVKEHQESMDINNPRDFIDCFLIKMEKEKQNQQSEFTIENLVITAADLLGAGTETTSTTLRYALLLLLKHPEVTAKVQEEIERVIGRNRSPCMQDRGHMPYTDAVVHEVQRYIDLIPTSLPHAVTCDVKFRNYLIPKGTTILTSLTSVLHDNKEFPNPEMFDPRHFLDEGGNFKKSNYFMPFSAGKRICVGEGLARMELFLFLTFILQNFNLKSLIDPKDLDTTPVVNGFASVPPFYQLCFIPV

[8] = test system: SARS-CoV-2 full Spike wild-type (Wuhan-Hu-1) mediated cell-to-cell fusion; test: cells; format: cell-based
CYP2D6 [9] = target: T1, CYP2D6
SARS-CoV-2 pseudovirus = test: microbe, parasite or virus in culture; format: cell-based
MERS-CoV pseudovirus [10] = test: microbe, parasite or virus in culture; format: cell-based; details: Middle East respiratory syndrome-related coronavirus, Huh-7
[11] = pH 7.4
[12] = rat, in vivo
[13] = female, Sprague Dawley, iv, 5 mg/kg

Chain of CYP1A2 (P05177 whole entry): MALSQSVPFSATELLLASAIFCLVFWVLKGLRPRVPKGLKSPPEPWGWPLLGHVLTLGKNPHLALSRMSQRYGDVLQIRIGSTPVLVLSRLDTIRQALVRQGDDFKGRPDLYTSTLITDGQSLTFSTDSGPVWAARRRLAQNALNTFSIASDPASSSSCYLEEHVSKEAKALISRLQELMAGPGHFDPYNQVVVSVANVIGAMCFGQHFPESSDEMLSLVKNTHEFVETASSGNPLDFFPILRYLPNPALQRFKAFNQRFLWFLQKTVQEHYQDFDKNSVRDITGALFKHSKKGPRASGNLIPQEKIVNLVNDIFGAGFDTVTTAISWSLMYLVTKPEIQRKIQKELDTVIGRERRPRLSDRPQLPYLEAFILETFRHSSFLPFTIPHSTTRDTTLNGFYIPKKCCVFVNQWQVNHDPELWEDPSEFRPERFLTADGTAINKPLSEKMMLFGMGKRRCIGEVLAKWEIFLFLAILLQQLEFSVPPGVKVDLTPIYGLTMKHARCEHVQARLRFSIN

O=C(O)c1cc(-c2ccc(/C=C3\SC(=S)N(CCc4ccccc4)C3=O)o2)ccc1Cl [Compound 1, (Z)-2-Chloro-5-(5-((4-oxo-3-phenethyl-2-thioxothiazolidin-5-ylidene)methyl)furan-2-yl)benzoic acid]
melting point: 348 to 350 °C | CYP inhibition class (CYP1A2): moderate (key: IC50 >10 μM (CYP inhibition low); <10 μM (CYP inhibition moderate); <3 μM (CYP inhibition high)) | % of Control Enzyme Activity (n = 1) (CYP1A2; 0.0137 μM): 99.2% | % of Control Enzyme Activity (n = 1) (CYP1A2; 0.0412 μM): 96.7% | % of Control Enzyme Activity (n = 1) (CYP1A2; 0.123 μM): 93.8% | % of Control Enzyme Activity (n = 1) (CYP1A2; 0.370 μM): 92.2% | % of Control Enzyme Activity (n = 1) (CYP1A2; 1.11 μM): 89.8% | % of Control Enzyme Activity (n = 1) (CYP1A2; 3.33 μM): 69.5% | % of Control Enzyme Activity (n = 1) (CYP1A2; 10 μM): 41.3% | IC50 (CYP1A2; human, microsomes, pH 7.4): 7400 nM | IC50 (SARS-CoV pseudovirus [1]): 98 to 157 nM | IC100 [2]: 1.25 µM | IC50 (MERS-CoV pseudovirus [3]): 76.5 to 123 nM | CYP inhibition class (CYP2C8): high (key: IC50 >10 μM (CYP inhibition low); <10 μM (CYP inhibition moderate); <3 μM (CYP inhibition high)) | % of Control Enzyme Activity (n = 1) (CYP2C8; 0.0137 μM): 102% | % of Control Enzyme Activity (n = 1) (CYP2C8; 0.0412 μM): 89.0% | % of Control Enzyme Activity (n = 1) (CYP2C8; 0.123 μM): 98.3% | % of Control Enzyme Activity (n = 1) (CYP2C8; 1.11 μM): 76.9% | % of Control Enzyme Activity (n = 1) (CYP2C8; 3.33 μM): 25.3% | % of Control Enzyme Activity (n = 1) (CYP2C8; 10 μM): 3.87% | IC50 (CYP2C8; human, microsomes, pH 7.4): 2080 nM | IC50 (SARS-CoV pseudovirus [4]): 13.8 to 17 nM | CYP inhibition class (CYP3A): low (key: IC50 >10 μM (CYP inhibition low); <10 μM (CYP inhibition moderate); <3 μM (CYP inhibition high)) | % of Control Enzyme Activity (n = 1) (CYP3A; 0.0137 μM): 96.7% and 96.6% | % of Control Enzyme Activity (n = 1) (CYP3A; 0.0412 μM): 97.0% | % of Control Enzyme Activity (n = 1) (CYP3A; 0.123 μM): 94.5% and 94.8% | % of Control Enzyme Activity (n = 1) (CYP3A; 0.370 μM, 0.37 µM): 95.1% and 96.3% | % of Control Enzyme Activity (n = 1) (CYP3A; 1.11 μM): 95.9% and 94.6% | % of Control Enzyme Activity (n = 1) (CYP3A; 3.33 μM): 88.2% and 82.2% | % of Control Enzyme Activity (n = 1) (CYP3A; 10 μM): 61.6% and 59.9% | clearance (in words) [5]: low-clearance compound | CC50 (in vitro): 37500 ± 1000 nM | CYP inhibition class (CYP2B6): moderate (key: IC50 >10 μM (CYP inhibition low); <10 μM (CYP inhibition moderate); <3 μM (CYP inhibition high)) | % of Control Enzyme Activity (n = 1) (CYP2B6; 0.0137 μM): 97.5% | % of Control Enzyme Activity (n = 1) (CYP2B6; 0.0412 μM): 98.1% | % of Control Enzyme Activity (n = 1) (CYP2B6; 0.123 μM): 90.4% | % of Control Enzyme Activity (n = 1) (CYP2B6; 0.370 μM): 94.2% | % of Control Enzyme Activity (n = 1) (CYP2B6; 1.11 μM): 76.9% | % of Control Enzyme Activity (n = 1) (CYP2B6; 3.33 μM): 47.0% | % of Control Enzyme Activity (n = 1) (CYP2B6; 10 μM): 15.2% | IC50 (CYP2B6; human, microsomes, pH 7.4): 3190 nM | AUC(0-t) (in vivo; iv, 5 mg/kg): 37500 ng·h/mL | AUC(0-t) (in vivo; po, 10 mg/kg): 12000 ng·h/mL | IC50 (CYP2D6 [6]): > 10000 nM | CYP inhibition class (CYP2C9): moderate (key: IC50 >10 μM (CYP inhibition low); <10 μM (CYP inhibition moderate); <3 μM (CYP inhibition high)) | % of Control Enzyme Activity (n = 1) (CYP2C9; 0.0137 μM): 99.4% | % of Control Enzyme Activity (n = 1) (CYP2C9; 0.0412 μM): 98.2% | % of Control Enzyme Activity (n = 1) (CYP2C9; 0.123 μM): 97.2% | % of Control Enzyme Activity (n = 1) (CYP2C9; 0.370 μM): 95.1% | % of Control Enzyme Activity (n = 1) (CYP2C9; 1.11 μM): 85.1% | % of Control Enzyme Activity (n = 1) (CYP2C9; 3.33 μM): 59.9% | % of Control Enzyme Activity (n = 1) (CYP2C9; 10 μM): 29.8% | IC50 (CYP2C9; human, microsomes, pH 7.4): 5010 nM | ka [7]: 1040 M⁻¹ s⁻¹ | CYP inhibition class (CYP2C19): moderate (key: IC50 >10 μM (CYP inhibition low); <10 μM (CYP inhibition moderate); <3 μM (CYP inhibition high)) | % of Control Enzyme Activity (n = 1) (CYP2C19; 0.0137 μM): 103% | % of Control Enzyme Activity (n = 1) (CYP2C19; 0.0412 μM): 110% | % of Control Enzyme Activity (n = 1) (CYP2C19; 0.123 μM): 101% | % of Control Enzyme Activity (n = 1) (CYP2C19; 0.370 μM): 102% | % of Control Enzyme Activity (n = 1) (CYP2C19; 1.11 μM): 92.0% | % of Control Enzyme Activity (n = 1) (CYP2C19; 3.33 μM): 70.8% | % of Control Enzyme Activity (n = 1) (CYP2C19; 10 μM): 40.7% | IC50 (CYP2C19; human, microsomes, pH 7.4): 7310 nM | inhibition of SARS-CoV-2 mediated cell-to-cell fusion (in words) [8]: potently inhibited the cell-to-cell fusion even at the lowest dose | inhibition at 0.25 µM ([8]; Severe acute respiratory syndrome coronavirus 2, Jurkat, at 250 nM, read-out: inhibitory activity of SARS-CoV-2 mediated cell-to-cell fusion): 62 to 79% | CYP inhibition class (CYP2D6 [9]): low (key: IC50 >10 μM (CYP inhibition low); <10 μM (CYP inhibition moderate); <3 μM (CYP inhibition high)) | % of Control Enzyme Activity (n = 1) (CYP2D6 [9]; 0.0137 μM): 95.8% | % of Control Enzyme Activity (n = 1) (CYP2D6 [9]; 0.0412 μM): 98.7% | % of Control Enzyme Activity (n = 1) (CYP2D6 [9]; 0.123 μM): 98.6% | % of Control Enzyme Activity (n = 1) (CYP2D6 [9]; 0.370 μM): 101% | % of Control Enzyme Activity (n = 1) (CYP2D6 [9]; 1.11 μM): 97.0% | % of Control Enzyme Activity (n = 1) (CYP2D6 [9]; 3.33 μM): 84.3% | % of Control Enzyme Activity (n = 1) (CYP2D6 [9]; 10 μM): 59.2% | antiviral activity against SARS-CoV-2 pseudovirus (in words) (SARS-CoV-2 pseudovirus): low nanomolar activity; also recorded: excellent antiviral activity; also recorded: low nM IC50 | IC50 (SARS-CoV-2 pseudovirus; Severe acute respiratory syndrome-related coronavirus, read-out: IC50s against SARS-CoV-2 pseudovirus over the cell lines): 32.3 to 63.4 nM | IC50 (MERS-CoV pseudovirus [10]): 95 to 158 nM | Solubility in Phosphate Buffer, Average [11]: 4.72 µM (≈ 2.22 µg/mL) | Solubility in Phosphate Buffer, R1 [11]: 4.35 µM (≈ 2.04 µg/mL) | C0 [12, 13]: 7407.25 ng/mL | CLobs [12, 13]: 0.00013 mg/kg/(ng/mL)/hr | MRT0-inf_obs [12, 13]: 4.02 h | Vss_obs [12, 13]: 0.00053 mg/kg/(ng/mL) | F % ([12]; female, Sprague-Dawley): 20.1% | MRT0-inf_obs ([12]; female, Sprague-Dawley, po, 10 mg/kg): 14.34 h | Vz/F_obs ([12]; po, 10 mg/kg): 0.01078 mg/kg/(ng/mL)
